Reference: patent US20070155713A1, “Nitrogen-containing heterocyclic compounds and use thereof” (priority 2003, published 2007)
Counter-ions that a name gives are not always drawn.

Target: T1, human CCR5 (Homo sapiens, UniProt P51681)
T1 construct: expressed in transfected cells; host or cells: CHO-dhfr(-)
Assay: Inhibition test on the binding of RANTES to CCR5 (RANTES-induced transient increase of Ca ion) in CCR5/CHO cells
Assay type: cell-based
Settings: human CCR5 stably over-expressing CHO cell; recombinant human RANTES 10 nM; intracellular Ca2+ transient increase (Fura-2AM)
Protocol: (1) Isolation of Human CCR5 Gene Human placental cDNA was prepared using Marathon cDNA amplification kit (Clontech). PCR primers hCCR5Xbal-F1: Using the human placental cDNA as the template and using Ex Taq (Takara), PCR reaction (2 minutes at 95° C. {cube root}(30 seconds at 95° C., 45 seconds at 60° C., 1 minute at 72° C.)×35 times) was carried out. The thus amplified PCR product was subjected to a 1% agarose gel electrophoresis, purified using QIAquick Gel Extraction Kit (QUIAGEN) and then digested with a restriction enzyme XbaI. The digested fragments were ligated to an expression vector pEF-BOS-bsr using DNA Ligation Kit Ver. 2 (Takara) and transformed into Escherichia coli DH5α. By preparing the resulting plasmid pEF-BOS-bsr/hCCR5, its DNA sequence was verified. CHO-dhfr(−) was cultured using Ham's F-12 (containing fetal bovine serum (10%), penicillin (50 U/ml) and streptomycin ([…])). […] Transient increase in the intracellular Ca^2+ concentration induced by the human RANTES was measured using a Ca^2+ detector for 96 well use (Hamamatsu Photonics), and inhibition ratio (%) of the test compound was calculated by the following calculation formula. • Inhibition ratio=(Ec−Ea)/Ec×100 • Ec: measured value of Ca^2+ transient increase by RANTES • Ea: measured value of Ca^2+ transient increase by RANTES when a test compound was added.

T1 sequence (P51681 whole entry): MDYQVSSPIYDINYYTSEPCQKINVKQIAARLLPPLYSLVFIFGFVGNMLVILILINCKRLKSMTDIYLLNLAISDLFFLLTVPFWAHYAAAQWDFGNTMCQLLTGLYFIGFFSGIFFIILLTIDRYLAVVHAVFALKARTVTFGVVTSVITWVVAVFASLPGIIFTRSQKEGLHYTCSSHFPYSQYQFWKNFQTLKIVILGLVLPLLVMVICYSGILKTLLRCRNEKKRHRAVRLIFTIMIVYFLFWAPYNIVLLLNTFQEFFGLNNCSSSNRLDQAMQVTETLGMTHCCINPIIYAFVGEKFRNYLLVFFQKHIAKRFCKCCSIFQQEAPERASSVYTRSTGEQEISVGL

CCCCN1C(=O)[C@H](CC2CCCCC2)NC(=O)C12CCN(Cc1ccccc1)CC2C (stereo partly drawn) [Example 1, (3S)-9-benzyl-1-butyl-3-(cyclohexylmethyl)-7-methyl-1,4,9-triazaspiro[5.5]undecane-2,5-dione hydrochloride]
IC50: 760 nM
